# Source: patent US12551536B2, “Semaglutide in medical therapy” (Novo Nordisk A/S, priority 2017, dated 2026)
# Test: 52-week clinical trial of once-daily semaglutide in obese subjects without diabetes mellitus: change in body weight
# Assay type: in vivo, human
# Details: for Change in body weight (%) from baseline to week 52, Change (%) Estimate / Change in body weight, Treatment difference (%-points) vs. Lira 3.0 mg / Change in body weight, Treatment difference (%-points) vs. Placebo Pool: ANCOVA, J2R-MI; for Change in body weight (%) from baseline at week 52, Model prediction (Estimate) %: Emax dose-response modelling; for Change in body weight (%) from baseline to week 52, Subjects in-trial, Mean / Change in body weight (%) from baseline to week 52, Subjects on-treatment, Mean: observed data
# Description: This trial was designed as a 52-week, randomised, double-blind, placebo-controlled, sixteen-armed, parallel group, multi-centre, multinational trial comparing once-daily subcutaneous administration of semaglutide in five different doses (ranging from 0.05 mg/day to 0.4 mg/day) with placebo in obese subjects without diabetes mellitus. […] The trial was double-blinded between active and placebo treatment. To ensure a sufficiently large sample of men, no more than 70% of the trial population was allowed to be women and the randomisation was stratified according to sex. Subjects were randomised in a balanced manner (6:1 active:placebo).
# The primary endpoint was relative change from baseline in body weight (%) at 52 weeks. Key secondary endpoints included proportion of subjects with weight loss of ≥5% or ≥10% of baseline body weight at 52 weeks as well as change in body weight from baseline to 52 weeks. Supportive secondary safety endpoints also included gastrointestinal (GI) adverse events (i.e. nausea, vomiting, diarrhoea and constipation). During each site visit the individual subject was asked via open questions if they had experienced any medical problems since the last visit. All medical problems either observed by the site staff or the subject was reported as an adverse event and evaluated for severity and causality by the investigator. For this trial the subjects had site visits every 2 weeks for the first 20 weeks of the trial and afterwards site visits was performed every 4 weeks.
# Subjects in all treatment arms including placebo received nutritional counselling and a calorie-reduced diet by a dietician or equivalent qualified delegate as well as physical activity counselling by a qualified person on a monthly basis beginning at the randomisation visit. The trial population consisted of a total of 957 subjects were randomised. A total of 777 subjects (81.2%) completed 52 weeks of treatment; 180 (18.8%) discontinued treatment prematurely with no obvious dose-dependent trend. Key inclusion criteria for this trial were: Male or female, age ≥18 years at the time of signing inform consent; body mass index (BMI)≥30.0 kg/m2 at the screening visit; and at least one unsuccessful weight loss attempt per investigator judgement. Key exclusion criteria for this trial were: A HbA1c≥6.5% at screening or diagnosed with type 1 or type 2 diabetes mellitus; Treatment with glucose lowering agent(s) within 90 days before screening; Screening calcitonin ≥50 ng/L (pg/mL); Personal or family history of medullary thyroid carcinoma or multiple endocrine neoplasia syndrome type 2; History of pancreatitis (acute or chronic); Obesity induced by endocrine disorders (e.g. Cushing Syndrome); Treatment with any medication within 90 days before screening that based on investigator's judgement may cause significant weight change; Previous surgical treatment for obesity (liposuction and/or abdominoplasty performed >1 year before screening is allowed); History of major depressive disorder within 2 years before randomisation; Any lifetime history of a suicidal attempt; and Female who is pregnant, breast-feeding or intends to become pregnant or is of childbearing potential and not using an adequate contraceptive method (adequate contraceptive measures as required by local regulation or practice).
# Statistical analyses of effect endpoints: The primary analysis was based on a ‘jump-to-reference’ multiple imputation approach (J2R-MI). Week 52 data from subjects who discontinued trial product and returned for the visit at week 52 were included in the analysis. First, an imputation model using observed week 52 body weight (kg) measurements from the placebo arm only were estimated. Second, multiple copies (1000) of the full analysis set were generated by imputing missing values in all treatment arms from the imputation model. The primary endpoint was calculated in each complete data set and analysed using an analysis of covariance (ANCOVA) model. […]
# [1] = Sema 0.05 mg once daily s.c., week 52
# [2] = Sema 0.1 mg once daily s.c., week 52
# [3] = Sema 0.2 mg once daily s.c., week 52
# [4] = Sema 0.3 mg once daily s.c., week 52
# [5] = Sema 0.4 mg once daily s.c., week 52
substance,measurement,setting,value
"N^6.26-{18-[N-(17-carboxyheptadecanoyl)-L-γ-glutamyl]-10-oxo-3,6,12,15-tetraoxa-9,18-diazaoctadecanoyl}-[8-(2-amino-2-propanoic acid),34-L-arginine]human glucagon-like peptide 1(7-37) [Sema]",Corresponding Sema dose (dosage of semaglutide providing the same body weight reduction as 3.0 mg liraglutide),"Lira 3.0 mg, Emax model, Estimate [95% CI], week 52",0.08 mg
same,"Change in body weight (%) from baseline to week 52, Change (%) Estimate",Sema 0.05 mg once daily s.c.,−5.99%
same,"Change in body weight, Treatment difference (%-points) vs. Lira 3.0 mg",[1],1.77 %-points
same,"Change in body weight, Treatment difference (%-points) vs. Placebo Pool",[1],−3.70 %-points
same,"Change in body weight (%) from baseline at week 52, Model prediction (Estimate) %",Sema 0.05 mg,−6.19%
same,"Change in body weight (%) from baseline to week 52, Change (%) Estimate",Sema 0.1 mg once daily s.c.,−8.62%
same,"Change in body weight (%) from baseline to week 52, Subjects in-trial, Mean",Sema 0.1 mg once daily s.c.,−9.11%
same,"Change in body weight (%) from baseline to week 52, Subjects on-treatment, Mean",Sema 0.1 mg once daily s.c.,−9.76%
same,"Change in body weight, Treatment difference (%-points) vs. Lira 3.0 mg",[2],−0.85 %-points
same,"Change in body weight, Treatment difference (%-points) vs. Placebo Pool",[2],−6.32 %-points
same,"Change in body weight (%) from baseline at week 52, Model prediction (Estimate) %",Sema 0.1 mg,−8.47%
same,"Change in body weight (%) from baseline to week 52, Change (%) Estimate",Sema 0.2 mg once daily s.c.,−11.60%
same,"Change in body weight (%) from baseline to week 52, Subjects in-trial, Mean",Sema 0.2 mg once daily s.c.,−12.54%
same,"Change in body weight (%) from baseline to week 52, Subjects on-treatment, Mean",Sema 0.2 mg once daily s.c.,−13.68%
same,"Change in body weight, Treatment difference (%-points) vs. Lira 3.0 mg",[3],−3.83 %-points
same,"Change in body weight, Treatment difference (%-points) vs. Placebo Pool",[3],−9.31 %-points
same,"Change in body weight (%) from baseline at week 52, Model prediction (Estimate) %",Sema 0.2 mg,−11.00%
same,"Change in body weight (%) from baseline to week 52, Change (%) Estimate",Sema 0.3 mg once daily s.c.,−11.17%
same,"Change in body weight (%) from baseline to week 52, Subjects in-trial, Mean",Sema 0.3 mg once daily s.c.,−12.06%
same,"Change in body weight (%) from baseline to week 52, Subjects on-treatment, Mean",Sema 0.3 mg once daily s.c.,−12.97%
same,"Change in body weight, Treatment difference (%-points) vs. Lira 3.0 mg",[4],−3.41 %-points
same,"Change in body weight, Treatment difference (%-points) vs. Placebo Pool",[4],−8.88 %-points
same,"Change in body weight (%) from baseline at week 52, Model prediction (Estimate) %",Sema 0.3 mg,−12.37%
same,"Change in body weight (%) from baseline to week 52, Change (%) Estimate",Sema 0.4 mg once daily s.c.,−13.84%
same,"Change in body weight (%) from baseline to week 52, Subjects in-trial, Mean",Sema 0.4 mg once daily s.c.,−13.96%
same,"Change in body weight (%) from baseline to week 52, Subjects on-treatment, Mean",Sema 0.4 mg once daily s.c.,−16.17%
same,"Change in body weight, Treatment difference (%-points) vs. Lira 3.0 mg",[5],−6.08 %-points
same,"Change in body weight, Treatment difference (%-points) vs. Placebo Pool",[5],−11.55 %-points
same,"Change in body weight (%) from baseline at week 52, Model prediction (Estimate) %",Sema 0.4 mg,−13.24%
same,"Change in body weight (%) from baseline to week 52, Subjects in-trial, Mean",Sema 0.5 mg once daily s.c.,−6.33%
same,"Change in body weight (%) from baseline to week 52, Subjects on-treatment, Mean",Sema 0.5 mg once daily s.c.,−6.79%
